Measurements reported in the NIST ThermoML archive (doi:10.1007/s10765-006-0093-7).

Conditions: Gas, Hot wire method

[Ar] [argon]
Conditions	thermal conductivity [W/m/K]
304.8 K, 1020 kPa	0.01821
304.8 K, 1560 kPa	0.01835
304.8 K, 2320 kPa	0.01869
304.8 K, 2590 kPa	0.01877
304.8 K, 4470 kPa	0.01959
329 K, 1200 kPa	0.0193
329 K, 1270 kPa	0.01953
329 K, 1960 kPa	0.01978
329 K, 2340 kPa	0.01995
329 K, 3030 kPa	0.02016
329 K, 3630 kPa	0.0203
329 K, 5980 kPa	0.02118
329 K, 7320 kPa	0.02192
360.05 K, 1240 kPa	0.02086
360.05 K, 1560 kPa	0.02098
360.05 K, 1640 kPa	0.02104
360.05 K, 2240 kPa	0.02129
360.05 K, 3200 kPa	0.02158
360.05 K, 4160 kPa	0.02192
360.05 K, 8720 kPa	0.0239
389.3 K, 1390 kPa	0.02227
389.3 K, 2140 kPa	0.02255
389.3 K, 2780 kPa	0.02276
389.3 K, 3330 kPa	0.02288
389.3 K, 3560 kPa	0.02304
389.3 K, 4190 kPa	0.02323
389.3 K, 5350 kPa	0.02353
389.3 K, 6050 kPa	0.02385
389.3 K, 6660 kPa	0.02405
389.3 K, 7500 kPa	0.0243
389.3 K, 8260 kPa	0.02466
389.3 K, 8500 kPa	0.02463
417.5 K, 1210 kPa	0.02336
417.5 K, 1400 kPa	0.02343
417.5 K, 2110 kPa	0.02369
417.5 K, 2740 kPa	0.02395
417.5 K, 3420 kPa	0.02415
417.5 K, 4130 kPa	0.02432
417.5 K, 4800 kPa	0.02459
417.5 K, 5470 kPa	0.02478
417.5 K, 6180 kPa	0.02504
417.5 K, 6890 kPa	0.02521
417.5 K, 7580 kPa	0.0256
417.5 K, 8270 kPa	0.02577
475.7 K, 1090 kPa	0.02562
475.7 K, 1410 kPa	0.02575
475.7 K, 2120 kPa	0.02608
475.7 K, 2790 kPa	0.02636
475.7 K, 3520 kPa	0.02652
475.7 K, 4250 kPa	0.02683
475.7 K, 5010 kPa	0.02692
475.7 K, 6100 kPa	0.02742
475.7 K, 7980 kPa	0.02789
